The test system of data set [1] is SHSY cells. The data set is described as follows: Toxicity of SZ-3 in cultured SHSY cells (MTT). The settings on record: different concentrations of SZ-3, 5-20 μM range. In kind it is cell-based. How it is done:
(§1) The synthesized SZ-3 compound was tested for neuroprotective properties in cell-based models using a neuroblastoma cell line (SHSY) and thrombin as a stressor. Thrombin was used as a cell death inducer in cell-based models for hemorrhagic brain injury. SHSY cells were challenged by 100 U/ml thrombin and after 3 hrs treated with different concentrations of synthesized compounds. […] Cell death is observed through fluorescence.
(§2) All types of cells used in these examples were assayed for viability and proliferation after 24-72 h using the MTT or CellTiter-Glo Luminescent assay Promega (Madison, Wis.). Cells after treatment were incubated with MTT reagent for 3 h in 5% CO2 at 37° C. The medium was replaced with DMSO to dissolve formazan crystals. Absorbance was read at 570 nm to quantify cell viability. CellTiter-Glo reagents were used in some experiments by adding equal amounts of reagent to the amount of medium containing cells for a 96-well plate. Contents were mixed for 2 minutes then incubated the plate for 10 minutes at room temperature to stabilize luminescent signal.

Data set [2] concerns HMC3 cells. The data set is described as follows: Scratch wound assay (IncuCyte) of microglial migration and proliferation. The format is cell-based, human. The settings on record: LPS 200 ng/ml. How it is done: HMC3 cells were seeded onto a poly-D-lysine hydrobromidecoated-coated 96-well culture plate and placed overnight in a 37° C. IncuCyte S3. WoundMaker was used to simultaneously create wounds in all wells and then LPS (200 ng/ml) was added to wounded cells except control group. After 3 h cells were treated with DMSO (control) or SZ-3 (5 μM). The wound images were taken at 2 h intervals for 58 h. Data were processed and analyzed by using IncuCyte software.
In response to brain injury, microglia transform into an activated state and migrate to the damaged area. This migration leads to an accumulation of activated microglia around the injury site resulting in vicious cycle of microglial activation and further release of inflammatory cytokines. To elucidate whether SZ-3 can stop or reduce the migration of activated microglial cells towards the injury site, a scratch wound assay was performed. At different time intervals, wound confluence, relative wound, and wound width metrics were assayed to analyze the migration of the microglial cells.
HMC3 cells (30,000 cells/well) were seeded onto a poly-D-lysine hydrobromidecoated-coated 96-well culture plate (corning) and placed overnight in a 37° C. IncuCyte S3 (Essen BioScience) supplied with 5% CO2. WoundMaker (Essen BioScience) was used to simultaneously create wounds in all wells then washed twice with culture medium. LPS (200 ng/ml) was added to wounded cells except control group immediately after the wash. 3 h later cells were treated with DMSO (control) or SZ-3 (5 μM). The wound images were taken at 2 h intervals for 72 h. Data were processed and analyzed by using IncuCyte software.

A short description of data set [3]: Solubility of SZ-3 in the mouse study. The format is physicochemical.
The next data set relates to NF-κB. As to the kind of experiment: WB of NF-κB in thrombin-challenged HMC3 cells. In kind it is cell-based, human. The conditions noted are these: thrombin 100 U/ml, SZ-3 10, 5 μM after 3 h, WB after 24 h. How it is done: (§3) FIG. 11: SZ-3 reduces inflammation through NF-κB mechanism. Cultured HMC3 cells were challenged with thrombin 100 U/ml and after 3 h were treated with different concentrations of SZ-3 (10 and 5 μM). Cells were harvested for WB analysis after 24 h.
(§4) WB was used to assay the expression levels of cofilin, phosphocofilin, and NF-κB. […] Without wishing to be bound by theory, the role of phosphocofilin is not fully understood, but it is believed that it is decreased in stress conditions and its restoration is beneficial.
(§5) HMC3 cells were cultured in DMEM/F12 medium supplemented with 5% horse serum (HS), 10% fetal bovine serum (FBS), and 1% penicillin/streptomycin. Cells were stimulated with 100 U/ml thrombin from bovine plasma (Sigma) and treated without (vehicle) or with different concentrations of SZ-3.
(§6) Cells were harvested and washed with ice-cold lysis buffer (250 mM sucrose, 1.5 mM MgCl2, 10 mM KCl, 20 mM HEPES 7.6 pH, 1 mM of dithiothreitol, 1 mM phenylmethylsulfonyl fluoride, 50 mM NaF, 10 mM sodium orthovanadate, 20 mM sodium pyrophosphate, and protease inhibitors) for 15 min then supplemented with 5% of Nonidet P-40 for 2 min. […] Glyceraldehyde 3-phosphate dehydrogenase (GAPDH) or beta-actin were used as the loading control, and band intensity analyzed using Bio-Rad Chemi-Doc XRS Image Lab Software.

For another data set, the system named is cofilin. The data set is described as follows: WB of cofilin in thrombin-challenged HMC3 cells. In kind it is cell-based, human. The settings on record: thrombin 100 U/ml. How it is done: as §3, §4, §5
Cells were harvested and washed with ice-cold lysis buffer (250 mM sucrose, 1.5 mM MgCl2, 10 mM KCl, 20 mM HEPES 7.6 pH, 1 mM of dithiothreitol, 1 mM phenylmethylsulfonyl fluoride, 50 mM NaF, 10 mM sodium orthovanadate, 20 mM sodium pyrophosphate, and protease inhibitors) for 15 min then supplemented with 5% of Nonidet P-40 for 2 min. Cytosolic fraction was collected from the supernatant after centrifugation at 14,000 g for 10 min. Bradford reagent (Bio-Rad Laboratories) was used to determine the protein concentrations, and equal amounts of samples were loaded onto 10-15% SDS-polyacrylamide gels, separated by electrophoresis, and transferred to PVDF membranes. Membranes were blocked and incubated with primary antibodies; cofilin, phosphocofilin, and NF-kB (Cell Signaling Technology) at 4° C. overnight. Membranes were incubated for 1 h at room temperature with horseradish peroxidase-conjugated secondary antibody (1:5000; Jackson ImmunoResearch) after washing. Glyceraldehyde 3-phosphate dehydrogenase (GAPDH) or beta-actin were used as the loading control, and band intensity analyzed using Bio-Rad Chemi-Doc XRS Image Lab Software.

Data set [4] concerns HMC3 cells. The data set is described as follows: Thrombin-induced cell death in HMC3 cells. The conditions noted are these: thrombin 100 U/ml, SZ-3 10 μM. In kind it is cell-based, human. How it is done:
as §3, §2

Another data set has as its system phosphocofilin. As to the kind of experiment: WB of phosphocofilin in thrombin-challenged HMC3 cells. In kind it is cell-based, human. The conditions noted are these: thrombin 100 U/ml, SZ-3 10, 5 μM after 3 h, WB after 24 h. How it is done:
as §3, §4, §5, §6

Data set [5] has as its system SHSY cells. The data set is described as follows: Thrombin-induced cell death in SHSY cells (MTT). The format is cell-based, human. The settings on record: thrombin 100 U/ml. How it is done:
as §1, §2

The structures appear in SMILES notation. “Also recorded” adds a separate entry of the source.

In the case of `CC(C)(C)c1ccc(O)c(CN(Cc2cc(C(C)(C)C)ccc2O)C2CCC(NC(N)=O)CC2)c1` (centres unmarked) [SZ-3, 4-{bis[(5-tert-butyl-2-hydroxyphenyl)methyl]amino}cyclohexyl urea], the “toxicity in SHSY cells” value in the data set on SHSY cells [1] is “did not show any signs of toxicity; also recorded: No toxicity was observed”. In the data set on HMC3 cells [2] (SZ-3 5 μM after 3 h), the “distance between the migrating edges of the wound (wound width)” value is reported as “in between”; the “microglial migration and proliferation” value was “reduces the proliferation and migration of the microglial cells; also recorded: reduced microglial migration and proliferation”. Also, the “confluence of cells within the wound region” value in the data set on HMC3 cells [2] (SZ-3 5 μM after 3 h, first 24 h) was “less with SZ-3 treated cells relative to non-treated cells”. For the same compound, the “cell density in the wound area relative to outside the wound area” value in the data set with HMC3 cells [2] (SZ-3 5 μM, after the 24 h of treatment) is “slow increase rate in cell density in the wound area”. In addition, the solubility entry in data set [3] is recorded as “no solubility issues”. In addition, the NF-κB expression level entry in the data set on NF-κB is on record as “significantly reduced”. Also, the cofilin expression entry in the data set on cofilin (SZ-3 5 μM (FIG. 11 legend)) is given as “reduced by treatment with 5 μM of SZ-3”. Moreover, the cofilin level result with cofilin (SZ-3 10 μM) is given as “significant decrease in cofilin level was observed only in 10 μM”. Moreover, in the data set with cofilin (SZ-3 10, 5 μM after 3 h, WB after 24 h), the cofilin expression level result is on record as “significantly reduced”. For the same compound, the “cell death induced by thrombin” value in the data set with HMC3 cells [4] is listed as “significantly restored cell death induced by thrombin”. In addition, the phosphocofilin expression level result in the data set with phosphocofilin is “reversed the expression levels”. Also, the “cell death induced by thrombin, best concentration” value with SHSY cells [5] (SZ-3 10 μM) is reported as “showing the best effect”. Further, in the data set with SHSY cells [5] (SZ-3 20, 10, 5 μM after 3 h, MTT after 24 h), the “cell death induced by thrombin” value is recorded as “significantly reversed the cell death; also recorded: significantly restored cell death induced by thrombin”.

Source of the values: patent US11548850B2, “Development of a cofilin inhibitor for the treatment of hemorrhagic brain injury-induced neuroinflammation” (The University of Toledo, priority 2019, dated 2023).
